In one assay the target is T1, Protein kinase C zeta type (Homo sapiens, UniProt Q05513).
T1 sequence (Q05513 whole entry): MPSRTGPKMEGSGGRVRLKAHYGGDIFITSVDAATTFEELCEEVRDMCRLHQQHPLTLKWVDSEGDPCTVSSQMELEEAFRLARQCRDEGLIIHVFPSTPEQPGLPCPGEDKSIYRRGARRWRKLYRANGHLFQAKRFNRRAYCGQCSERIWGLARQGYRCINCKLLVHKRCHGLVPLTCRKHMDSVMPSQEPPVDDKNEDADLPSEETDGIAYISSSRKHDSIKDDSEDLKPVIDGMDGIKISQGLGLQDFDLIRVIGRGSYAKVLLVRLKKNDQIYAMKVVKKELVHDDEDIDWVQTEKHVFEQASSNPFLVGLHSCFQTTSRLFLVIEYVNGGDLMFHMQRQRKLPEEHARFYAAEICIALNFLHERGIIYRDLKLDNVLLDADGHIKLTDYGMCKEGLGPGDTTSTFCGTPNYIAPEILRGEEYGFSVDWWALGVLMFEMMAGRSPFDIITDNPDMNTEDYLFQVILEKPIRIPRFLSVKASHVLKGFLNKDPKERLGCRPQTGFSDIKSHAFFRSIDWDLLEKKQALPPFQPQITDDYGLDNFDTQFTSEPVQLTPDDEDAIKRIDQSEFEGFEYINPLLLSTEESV
The assay can be described thus: PKA/PKC Kinase Assay. Conditions: pH 7.5; 22 °C. Here is the method:
The kinase assay uses purified recombinant enzyme and a biotinylated peptide as substrate. The biotinylated peptides were immobilized on streptavidin-coated FLASH plates. After reaction, the 33P-phosphopeptide captured on the FLASH plates was measured with a TopCount Packard Instruments gamma counter (Packard Instruments, Boston, MA). IC50s were calculated using the sigmoidal curve fit with the Assay Explorer software (MDL, Los Angeles, CA).
By IC50 is commonly meant the concentration that inhibits the measured activity by half. As to `N[C@H](COc1cnc(Cl)c(-c2ccc3cnccc3c2)c1)Cc1c[nH]c2ccccc12` [6-{5-[(2S)-2-amino-3-(1H-indol-3-yl)propoxy]-2-chloropyridin-3-yl}isoquinoline], the IC50 is greater than 5000 nM.

In a further assay the target is T2, RAC-alpha serine/threonine-protein kinase [139-480,S378A,S381A,T450D,S473D] (Homo sapiens, UniProt P31749, S378A/S381A/S473D/T450D).
T2 construct: 139-480
T2 sequence (P31749 139-480 S378A/S381A/T450D/S473D): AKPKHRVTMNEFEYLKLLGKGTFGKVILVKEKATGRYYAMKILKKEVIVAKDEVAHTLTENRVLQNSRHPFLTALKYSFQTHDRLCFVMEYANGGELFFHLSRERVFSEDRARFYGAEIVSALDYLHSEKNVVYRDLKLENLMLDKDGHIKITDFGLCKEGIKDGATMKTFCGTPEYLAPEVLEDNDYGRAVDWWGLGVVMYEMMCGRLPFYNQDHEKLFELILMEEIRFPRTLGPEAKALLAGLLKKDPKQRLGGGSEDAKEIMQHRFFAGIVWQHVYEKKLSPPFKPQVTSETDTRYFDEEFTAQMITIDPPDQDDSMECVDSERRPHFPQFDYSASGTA
The assay can be described thus: Akt Kinase Assay.
Conditions: not given
Here is the method: The kinase assay uses His-Akt1 and a biotinylated peptide as substrate. The biotinylated peptides were immobilized on streptavidin-coated FLASH plates. After reaction, the 33P-phosphopeptide captured on the FLASH plates was measured with a TopCount Packard Instruments […] (Packard Instruments, Boston, MA).
As to `N[C@H](COc1cncc(-c2ccc3cnc(C#Cc4ccccc4)cc3c2)c1)Cc1c[nH]c2ccccc12` [6-{5-[(2S)-2-amino-3-(1H-indol-3-yl)propoxy]pyridin-3-yl}-3-(2-phenylethynyl)isoquinoline], the IC50 turned out to be 56 nM.
As to `N[C@H](COc1cncc(-c2ccc3cnc(-c4ccco4)cc3c2)c1)Cc1c[nH]c2ccccc12` [6-{5-[(2S)-2-amino-3-(1H-indol-3-yl)propoxy]pyridin-3-yl}-3-(furan-2-yl)isoquinoline], the IC50 is 57 nM.
In the case of `CC#Cc1cc2cc(-c3cncc(OC[C@@H](N)Cc4c[nH]c5ccccc45)c3)ccc2cn1` [6-{5-[(2S)-2-amino-3-(1H-indol-3-yl)propoxy]pyridin-3-yl}-3-(prop-1-yn-1-yl)isoquinoline], the IC50 came to 180 nM.
`N[C@H](COc1cncc(-c2ccc3cnc(-c4ccncc4)cc3c2)c1)Cc1c[nH]c2ccccc12` [6-{5-[(2S)-2-amino-3-(1H-indol-3-yl)propoxy]pyridin-3-yl}-3-(pyridin-4-yl)isoquinoline] gave an IC50 of 122 nM.
Same read-out and setting: the value for `N[C@H](COc1cncc(-c2ccc3cnc(Cl)cc3c2)c1)Cc1c[nH]c2ccccc12` [6-{5-[(2S)-2-amino-3-(1H-indol-3-yl)propoxy]pyridin-3-yl}-3-chloroisoquinoline] was 407 nM; that for `C=Cc1cc2cc(-c3cncc(OC[C@@H](N)Cc4c[nH]c5ccccc45)c3)ccc2cn1` [6-{5-[(2S)-2-amino-3-(1H-indol-3-yl)propoxy]pyridin-3-yl}-3-ethenylisoquinoline] was 22 nM.
In the case of `CCc1cc2cc(-c3cncc(OC[C@@H](N)Cc4c[nH]c5ccccc45)c3)ccc2cn1` [6-{5-[(2S)-2-amino-3-(1H-indol-3-yl)propoxy]pyridin-3-yl}-3-ethylisoquinoline], the IC50 worked out at 144 nM.
The compound `N[C@H](COc1cncc(-c2ccc3cnc(F)cc3c2)c1)Cc1c[nH]c2ccccc12` [6-{5-[(2S)-2-amino-3-(1H-indol-3-yl)propoxy]pyridin-3-yl}-3-fluoroisoquinoline] gave an IC50 of 3.5 nM.
The compound `N[C@H](COc1cncc(-c2ccc3cnc(-c4ccccc4)cc3c2)c1)Cc1c[nH]c2ccccc12` [6-{5-[(2S)-2-amino-3-(1H-indol-3-yl)propoxy]pyridin-3-yl}-3-phenylisoquinoline] registered an IC50 of 305 nM.
In turn, `Cc1cc(-c2cncc(OC[C@@H](N)Cc3c[nH]c4ccccc34)c2)cc2ccncc12` [6-{5-[(2S)-2-amino-3-(1H-indol-3-yl)propoxy]pyridin-3-yl}-8-methylisoquinoline] came in with an IC50 of 995 nM.
For `Nc1cc2cc(-c3cncc(OC[C@@H](N)Cc4c[nH]c5ccccc45)c3)ccc2cn1` [6-{5-[(2S)-2-amino-3-(1H-indol-3-yl)propoxy]pyridin-3-yl}isoquinolin-3-amine], the IC50 is 3.4 nM.
In turn, `Nc1c(-c2cncc(OC[C@@H](N)Cc3c[nH]c4ccccc34)c2)ccc2cnccc12` [6-{5-[(2S)-2-amino-3-(1H-indol-3-yl)propoxy]pyridin-3-yl}isoquinolin-5-amine] yielded an IC50 of 15 nM.
Consider `N#Cc1cc2cc(-c3cncc(OC[C@@H](N)Cc4c[nH]c5ccccc45)c3)ccc2cn1` [6-{5-[(2S)-2-amino-3-(1H-indol-3-yl)propoxy]pyridin-3-yl}isoquinoline-3-carbonitrile], for which the IC50 worked out at 640 nM.

The same assay, now with this note: pH 7.5; 22 °C.
As to `N#Cc1ncc(OC[C@@H](N)Cc2c[nH]c3ccccc23)cc1-c1ccc2cnccc2c1` [5-[(2S)-2-amino-3-(1H-indol-3-yl)propoxy]-3-(isoquinolin-6-yl)pyridine-2-carbonitrile], the IC50 is 4.6 nM.
The same measure, in the same setting: the figure for `N[C@H](COc1cnc(C#Cc2ccccc2)c(-c2ccc3cnccc3c2)c1)Cc1c[nH]c2ccccc12` [6-{5-[(2S)-2-amino-3-(1H-indol-3-yl)propoxy]-2-(2-phenylethynyl)pyridin-3-yl}isoquinoline] is 1240 nM.
In turn, `N[C@H](COc1cnc(-c2ccco2)c(-c2ccc3cnccc3c2)c1)Cc1c[nH]c2ccccc12` [6-{5-[(2S)-2-amino-3-(1H-indol-3-yl)propoxy]-2-(furan-2-yl)pyridin-3-yl}isoquinoline] registered an IC50 of 1.5 nM.
In turn, `N[C@H](COc1cnc(Cl)c(-c2ccc3cnccc3c2)c1)Cc1c[nH]c2ccccc12` [6-{5-[(2S)-2-amino-3-(1H-indol-3-yl)propoxy]-2-chloropyridin-3-yl}isoquinoline] displayed an IC50 of 1.8 nM.
As to `C=Cc1ncc(OC[C@@H](N)Cc2c[nH]c3ccccc23)cc1-c1ccc2cnccc2c1` [6-{5-[(2S)-2-amino-3-(1H-indol-3-yl)propoxy]-2-ethenylpyridin-3-yl}isoquinoline], half-maximal inhibition (IC50) was put at 2 nM.
The compound `C#Cc1ncc(OC[C@@H](N)Cc2c[nH]c3ccccc23)cc1-c1ccc2cnccc2c1` [6-{5-[(2S)-2-amino-3-(1H-indol-3-yl)propoxy]-2-ethynylpyridin-3-yl}isoquinoline] returned an IC50 of 0.8 nM.
As to `Cc1c(OC[C@@H](N)Cc2c[nH]c3ccccc23)cncc1-c1ccc2cnccc2c1` [6-{5-[(2S)-2-amino-3-(1H-indol-3-yl)propoxy]-4-methylpyridin-3-yl}isoquinoline], half-maximal inhibition (IC50) required 84 nM.
As to `N[C@H](COc1cc(-c2ccc3cnccc3c2)cnc1Cl)Cc1c[nH]c2ccccc12` [6-{5-[(2S)-2-amino-3-(1H-indol-3-yl)propoxy]-6-chloropyridin-3-yl}isoquinoline], the midpoint of inhibition, the IC50, lay at 12 nM.
In turn, `N[C@H](COc1cncc(-c2ccc3c(Cl)nccc3c2)c1)Cc1c[nH]c2ccccc12` [6-{5-[(2S)-2-amino-3-(1H-indol-3-yl)propoxy]pyridin-3-yl}-1-chloroisoquinoline] had an IC50 of 778 nM.
Consider `N[C@H](COc1cncc(-c2ccc3c(F)nccc3c2)c1)Cc1c[nH]c2ccccc12` [6-{5-[(2S)-2-amino-3-(1H-indol-3-yl)propoxy]pyridin-3-yl}-1-fluoroisoquinoline], for which the midpoint of inhibition, the IC50, lay at 227 nM.
In turn, `COc1nccc2cc(-c3cncc(OC[C@@H](N)Cc4c[nH]c5ccccc45)c3)ccc12` [6-{5-[(2S)-2-amino-3-(1H-indol-3-yl)propoxy]pyridin-3-yl}-1-methoxyisoquinoline] registered an IC50 of 39500 nM.
`Nc1nccc2cc(-c3cncc(OC[C@@H](N)Cc4c[nH]c5ccccc45)c3)ccc12` [6-{5-[(2S)-2-amino-3-(1H-indol-3-yl)propoxy]pyridin-3-yl}isoquinolin-1-amine] gave an IC50 of 160 nM.
`N[C@H](COc1cncc(-c2ccc3c(=O)[nH]ccc3c2)c1)Cc1c[nH]c2ccccc12` [6-{5-[(2S)-2-amino-3-(1H-indol-3-yl)propoxy]pyridin-3-yl}isoquinolin-1-ol] gave an IC50 of 1240 nM.
Take `N[C@H](COc1cncc(-c2ccc3cnccc3c2)c1)Cc1c[nH]c2ccccc12` [13a (S-)]: the IC50 stood at 2 nM.
The same measure, in the same setting: the value for `N#C/C=C/c1c(OC[C@@H](N)Cc2c[nH]c3ccccc23)cncc1-c1ccc2cnccc2c1` [(2E)-3-{3-[(2S)-2-amino-3-(1H-indol-3-yl)propoxy]-5-(isoquinolin-6-yl)pyridin-4-yl}prop-2-enenitrile] was 697 nM.

The values are drawn from BindingDB's records for doi:10.1016/j.bmcl.2006.03.041 (Abbott Laboratories, 2006).
